From patent US20090304823A1, “NUTRITIONAL COMPOSITIONS FOR PROMOTION OF BONE GROWTH AND MAINTENANCE OF BONE HEALTH AND METHODS REGARDING SAME” (NESTEC S.A., priority 2006, published 2009) come the findings set out here.

Test [1] concerns osteoblast cells. The test can be described thus: Alkaline phosphatase assay in osteoblast cells (osteoblast differentiation). It is filed as cell-based.
In test [2] the test system is BMP-2. The experiment in a line: BMP-2 gene reporter assay (high throughput screen). It is filed as cell-based. The procedure: BMP-2 gene reporter assay (high throughput screen) (i) BMP-2 high throughput gene reporter assay of non-hydrolyzed MeOH/H2O extracts (1a) and corresponding glycosidase hydrolyzed extract in ethyl acetate (1b). Extracts were tested twice at concentrations of 1 to 100 μg/ml, diluted in culture medium from plant extract stocks prepared as 50 mg/ml in DMSO. (ii) Extracts positive in the BMP-2 screen were prepared de novo and screened again with dose-response to confirm as “hits”. (iii) BMP-2 testing of subfractionation of positives/hits and candidate pure compounds

The subject of test [3] is OPG/RANKL. The experiment in a line: Osteoblast/osteoclast co-culture system, cytokine regulation. It is filed as cell-based. The procedure:
For example, at least 3 phenolics (e.g. eupafolin, carnosol, scutellarein) may contribute to the anabolic potential of the rosemary extract. Additional phenolics of rosemary include genkwanin, kaempferol, acacetin. The rosemary plant extracts and pure compounds were tested in an osteoblast/osteoclast co-culture system.

In test [4] the test system is neonatal murine calvarial bones. The experiment in a line: Calvaria organ culture in vitro, bone formation. The format is cell-based. The procedure:
(v) Final injection in vivo of “hit” extract into mouse calvaria bones and monitoring of bone area and thickness. Extracts were assessed in a 4-day in vitro neonatal murine calvarial assay. Bones were incubated with the extracts for the entire 4 days.

For test [5], the system named is bovine articular cartilage explants. The test can be described thus: Cytokine-induced collagen degradation in articular cartilage explants. It is filed as cell-based. The note with it: 1 or 5 μM; FIG. 9C. The text has this:
(vii) Effects on cytokine-induced type II collagen degradation, MMP-mediated aggrecan degradation and aggrecanase-mediated degradation in bovine articular cartilage explants.
We investigated here whether 2 different rosemary extracts and carnosol, one of the main components of this extract, could inhibit the degradation of collagen and aggrecan in cultured explants of articular cartilage. Explants from healthy bovine articular cartilage were put in culture. However, such explants naturally display a very low catabolic activity which is not ideal to test the anti-catabolic activity of potential bioactives. To improve the sensitivity of the assay, the explants are cultured in presence of 2 pro-inflammatory cytokines, TNF-α and oncostatin known to act together as potent inducers of MMP and aggrecanase activities.

The subject of test [6] is NQO1. The experiment in a line: NQO1 induction, immunoblot of hPOBtert cell extracts. It is filed as cell-based, human. Conditions: hPOBtert cells; FIG. 11. How it is done:
Preparation of cytoplasmic extracts—hPOBtert cells were washed two times with cold phosphate-buffered saline and harvested with lysis buffer (1% Triton X-100, 20 mM Tris/HCL pH 8, 137 mM Nacl, 10% Glycerol, 2 mM EDTA pH 8, and freshly added proteinase inhibitors: 1 mM phenylmethylsulfonylfluoride, 0.15 U/ml Aprotinin, 10 μg/ml Leupeptide and 10 μg/ml Pepstatin). The samples were centrifuged at 13000 rpm, 4° C. for 5 min and the supernatant transferred to a fresh tube. The protein concentration was determined using the BioRad protein assay. Approximately 50 μg of each sample were mixed with a suitable volume of sample buffer, denatured for 5 min at 95° C. together with 5 μl protein standard, chilled on ice, and loaded on a 10% ready gel, and submitted to immunoblot analysis using anti-NQO1 antibodies.
Immunoblotting—50 μg of protein cell lysate were resolved by SDS-PAGE. After electrophoresis, proteins were transferred to a PVDF membrane (Invitrogen) according to the manufacturer's protocol. Membranes probed for OPN and NQO1 were blocked and probed in 5% milk in Tris-buffered saline/Tween (20 mM Tris base, pH 7.6, 137 mM, 0.1% Tween 20). The blots were visualised by chemiluminescence development, Western blotting detection system (Amersham Biosciences).
Antibodies—The NQO1 (sc-16464)-specific antibodies were purchased from Santa Cruz Biotechnologies Inc (Santa Cruz, Calif.). […]

For test [7], the system named is Osteopontin (OPN) mRNA. The experiment in a line: OPN mRNA induction by real-time PCR in hPOBtert osteoblasts. The format is cell-based, human. Conditions: hPOBtert cells, 48 h; FIG. 10. The procedure:
Cell culture—HPOBTert osteoblasts were seeded on collagen-coated plates and grown in MEM Eagle α Modification medium supplemented with 10% fetal bovine serum, 1% L-glutamine and penicillin/streptomycin, 1 mM β-glycerolphosphate and 50 μg/ml ascorbic acid in a humidified atmosphere of 5% CO2, and 95% air at 37° C. When carnosol and inhibitors were added, an equivalent amount of Me2SO was used as a vehicle control. Analysis of mRNA levels by Real-Time PCR—Total cellular RNA was extracted using the NucleoSpin RNA II kit (Macherey-Nagel, Switzerland). Equal amounts (1 μg) of RNA from the different treatments were reverse-transcribed using the First Strand cDNA Synthesis kit for RT-PCR (Roche, Mannheim, Germany). For each sample, 2 μl 10× reaction buffer, 4 μl 25 mM MgCl2, 2 μl nucleotide mix, 2 μl random primers, 1 μl RNAse inhibitor and 0.4 μl AMV reverse transcriptase from the kit were added to the sample. The reverse transcriptase was performed at the following thermal cycling conditions (25° C. for 10 min, 42 C for 60 min, and 75° C. for 5 min) using the PTC-100TM Concept, Switzerland). Real-time Quantitative PCR—Quantitative PCR was performed in 25 μl in triplicates. This consisted of 12.5 μl of Taqman 2× Universal PCR Master Mix, 1.25 μl Assay-on-Demand primers and probes (Applied Biosystems, USA) and 6.25 μl RNAse free water. […]

In turn, `COc1ccc(-c2cc(=O)c3c(O)cc(O)cc3o2)cc1` [Acacetin] returned an ALP activity induction in test [1] (5-10 μM) of 2X. Moreover, the BMP-2 induction in test [2] (5-10 μM) is 3-5X.

On to `COc1c(O)cc2oc(-c3ccc(O)c(O)c3)cc(=O)c2c1O` [Eupafolin], for which the results for the ALP activity induction in test [1] (5 μM) and in test [1] (10 μM) were 2 X and 4 X, respectively. Moreover, in test [3], the “regulation of the key cytokines controlling bone remodelling, OPG/RANKL” value is given as “activity for regulation”. Besides, the BMP-2 induction in test [2] (2.5-10 μM) is listed as 3-8X.

In test [1] (10 μM), `O=c1cc(-c2ccc(O)cc2)oc2cc(O)c(O)c(O)c12` [IX, Scutellarein] registered an ALP activity induction of 2X. Also, the BMP-2 induction in test [2] (5, 10 μM) is given as 3-4X.

For the molecule `O=c1c(O)c(-c2ccc(O)cc2)oc2cc(O)cc(O)c12` [Kaempferol], the “Bone formation in organ culture” value in test [4] (10 μM) is given as “Slight at 10 μM”. Moreover, the ALP activity induction in test [1] (2.5-10 μM) was 2-4X. The same molecule displayed a BMP-2 induction in test [2] (1-10 μM) of 2.5X.

In turn, `COc1cc(O)c2c(=O)cc(-c3ccc(O)cc3)oc2c1` [V, Genkwanin] yielded an ALP activity induction in test [1] (10 μM) of 1.5X. Further, the BMP-2 induction in test [2] (5 μM) came to 4X.

`CC(C)c1cc2c(c(O)c1O)[C@@]13CCCC(C)(C)[C@@H]1C[C@@H]2OC3=O` [VII, Carnosol]: the “Bone formation in organ culture” value in test [4] (2.5 μM) is given as “Slight BF for 2.5 μM”; in test [4] (5, 10 μM) it was “Good BF for 5, 10 μM”. Besides, the ALP activity induction in test [1] (2.5-10 μM) came out at 2X. Besides, in test [3], the “regulation of the key cytokines controlling bone remodelling, OPG/RANKL” value was “activity for regulation”. The BMP-2 induction in test [2] (2.5-10 μM) was 4.5-7X. In addition, the “BMP- Activity” value in test [2] (compounds isolated from rosemary extract 2188) is reported as “YES”. Moreover, in test [5], the “cytokine induced collagen degradation” value is listed as “inhibited”. Besides, the “expression of the phase II enzyme NQO1” value in test [6] is “induces the expression”. In addition, the “OPN expression (OPN mRNA levels)” value in test [7] is “induce OPN expression dose-dependently”.
